This is an account of results in patent US10258600B2, “Aryl hydrocarbon receptor (AhR) modifiers as novel cancer therapeutics” (Trustees of Boston University, priority 2010, dated 2019).

“Also recorded” adds a separate entry of the source.

Data set [1] concerns BP1 cells. Kind of data set: Tumor invasion in Matrigel, BP1. It is filed as cell-based, human. Conditions: 5 uM, 5 days. The protocol:
(§1) BP1 cells were cultured in the presence of vehicle (left) or 5 uM CB7993113 in Matrigel for 5 days. CB7993113 is not toxic at the highest doses tested, 10 uM.
BP1 cells were cultured in Matrigel in the presence of vehicle, 5 μM DIM (16A), vehicle or 5 uM CB7950998 (16B) for 5 days.

A further data set deals with T1, PPARγ (Homo sapiens, UniProt P37231).
T1 construct: expressed in transfected cells; host or cells: Cos 7 cells
T1 sequence (P37231 1-505): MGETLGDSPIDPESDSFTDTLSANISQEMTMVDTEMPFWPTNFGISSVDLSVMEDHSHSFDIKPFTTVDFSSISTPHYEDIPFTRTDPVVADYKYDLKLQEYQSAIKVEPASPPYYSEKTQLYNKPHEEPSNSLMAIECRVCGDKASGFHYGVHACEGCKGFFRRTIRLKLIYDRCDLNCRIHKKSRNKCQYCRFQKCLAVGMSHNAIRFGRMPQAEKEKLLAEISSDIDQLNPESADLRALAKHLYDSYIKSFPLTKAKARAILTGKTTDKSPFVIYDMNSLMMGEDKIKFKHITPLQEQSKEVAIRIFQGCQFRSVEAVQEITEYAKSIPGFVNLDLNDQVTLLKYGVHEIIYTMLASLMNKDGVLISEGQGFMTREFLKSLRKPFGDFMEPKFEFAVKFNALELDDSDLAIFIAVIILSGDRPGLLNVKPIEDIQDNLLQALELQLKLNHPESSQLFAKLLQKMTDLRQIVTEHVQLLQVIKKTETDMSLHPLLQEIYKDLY
T1 sequence (P19793 1-462 partner): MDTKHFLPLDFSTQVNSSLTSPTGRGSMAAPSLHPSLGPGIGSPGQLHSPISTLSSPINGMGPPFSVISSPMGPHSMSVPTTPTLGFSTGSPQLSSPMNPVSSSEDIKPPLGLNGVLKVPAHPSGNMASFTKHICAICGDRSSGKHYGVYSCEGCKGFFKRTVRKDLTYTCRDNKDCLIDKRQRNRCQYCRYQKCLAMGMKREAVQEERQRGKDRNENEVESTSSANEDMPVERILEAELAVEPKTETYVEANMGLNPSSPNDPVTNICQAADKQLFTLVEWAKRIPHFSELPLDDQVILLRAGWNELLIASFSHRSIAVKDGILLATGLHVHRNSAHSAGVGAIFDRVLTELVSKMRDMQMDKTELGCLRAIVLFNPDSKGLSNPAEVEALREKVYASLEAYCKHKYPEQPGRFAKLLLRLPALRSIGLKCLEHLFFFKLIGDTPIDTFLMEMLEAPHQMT
Kind of data set: PPARγ-driven luciferase reporter in Cos 7 cells. It is filed as cell-based. As to conditions: rosiglitazone 1 μM, 18-24 hrs. The protocol: Cos 7 cells were transfected with the peroxisome proliferator activator receptor-γ (PPARγ), its dimerization partner, RXR, a PPARγ-driven luciferase reporter construct, and a control CMV-driven GFP reporter for 24 hours. Cells then were treated with a vehicle, 10 μM AhR inhibitor CH223191, 50 μM AhR inhibitor CMLD-2166, or 10 μM AhR inhibitor CB7993113. (These represent high AhR inhibitor doses). Rosiglitazone (1 μM), a strong PPARγ agonist, was added 1 hour later and cells assayed 18-24 hrs thereafter for PPARγ-driven reporter activity (luciferase intensity), normalized to the GFP signal. Data were pooled from 4 experiments. Unlike their ability to block AhR-driven reporter activity, the AhR inhibitors had no effect on the PPARγ-driven reporter activity.

The test system of data set [2] is Hs578T cells. As to the kind of experiment: Tumor invasion in Boyden Chambers. The data set is classed as cell-based, human. As to conditions: 10^−5M, 2 days. As to the method:
(§2) Hs578T cells were cultured in Boyden Chambers (FIG. 7A) or in Matrigel (FIG. 7B) in the presence of DMSO, 10^−5M CMLD-2166, CMLD-2186 (a 2166 enantiomer) or CH223191 and assayed for invasion 2 (Boyden Chambers) or 7 (Matrigel) days later.

In data set [3] the target is T2, AhR (Mus musculus, UniProt P30561). As to the kind of experiment: High throughput AhR-driven GFP reporter bioassay in H1G1 cells. Set-up: H1G1 cells expressing an AhR-driven GFP reporter construct; endogenous in cells; host or cells: H1G1 cells. Conditions: titered in presence of 1 μM BNF; read-out: AhR Antagonists IC50. It is filed as cell-based. The protocol:
Using a high throughput reporter-based AhR bioassay and cell viability assay, over 4000 CMLD compounds, FDA drugs, and NCI-generated extracts were screened, and 8 non-toxic AhR inhibitors (2 from the CMLD) and 19 AhR agonists (14 from the CMLD) were identified (as shown in, e.g., FIGS. 4A-4B). IC50 values for inhibitors and EC50 values for agonists were determined (Table 1). One of these discovered inhibitors (CMLD-2166), its enantiomer (CMLD-2186), and a previously described lipid soluble AhR inhibitor (CH223191) blocked tumor growth and invasion (FIGS. 5A-5B and 7A-7B).
FIGS. 4A-4B show high-throughput screening (HTS) for AhR agonists and antagonists. […] A dark circle identifies an AhR inhibitor while the light circle indicates an agonist. […] Over 4,000 compounds were screened in this semi-automated assay.

Data set [4] has as its system Hs578T cells. As to the kind of experiment: Tumor invasion in Matrigel, Hs578T. It is filed as cell-based, human. Conditions: 10^−5M, 7 days. As to the method: as §2
In the next data set the test system is BP1 and MCF-10F cells. As to the kind of experiment: 3H-thymidine incorporation cell growth. The data set is classed as cell-based, human. As to conditions: 18 hrs. (In general: Incorporation of labelled thymidine or its analogues reports DNA synthesis.)
Data set [5] has as its system bone marrow hematopoietic cells. As to the kind of experiment: DMBA-induced bone marrow toxicity in mice. The data set is classed as in vivo, C57BL/6 mice. As to conditions: 48 hours; for DMBA-induced decrease in total number of bone marrow cells: 50 mg/kg i.p., 50 mg/kg DMBA; for DMBA-induced decrease in pro B cells, pre-B cells and neutrophils: co-administration with 50 mg/kg DMBA. The protocol:
To test the ability of one of the lead compounds described herein, CB7993113, to be absorbed and to function effectively in vivo, C57BL/6 mice were treated with an acutely toxic dose (50 mg/kg) of DMBA, a potent AhR agonist, in the presence or absence of CB7993113 or another AhR inhibitor, CH223191. […] This decrease in the total number of bone marrow cells was prevented by the i.p. injection of 50 mg/kg CH223191 or CB7993113.
Mice then were injected with 50 mg/kg DMBA. Mice were sacrificed 48 hours later. Bone marrow hematopoietic cells were expunged from the bone and viable cells counted. Data are presented as the average number of viable white blood cells+SE. **p<0.01, ***P<0.001, student's t-test. […] C57BL/6 mice (6/group) were treated as in FIG. 8A. The percentage and number of viable bone marrow pro B cells, pre B cells, and neutrophils were determined 48 hours later by flow cytometry. Data are presented as the average number of viable cells of each subtype+SE. (*p<0.05, **P<0.01, student's t-test).

Data set [6] addresses T3, AhR (Homo sapiens, UniProt P35869).
T3 sequence (P35869 11-848): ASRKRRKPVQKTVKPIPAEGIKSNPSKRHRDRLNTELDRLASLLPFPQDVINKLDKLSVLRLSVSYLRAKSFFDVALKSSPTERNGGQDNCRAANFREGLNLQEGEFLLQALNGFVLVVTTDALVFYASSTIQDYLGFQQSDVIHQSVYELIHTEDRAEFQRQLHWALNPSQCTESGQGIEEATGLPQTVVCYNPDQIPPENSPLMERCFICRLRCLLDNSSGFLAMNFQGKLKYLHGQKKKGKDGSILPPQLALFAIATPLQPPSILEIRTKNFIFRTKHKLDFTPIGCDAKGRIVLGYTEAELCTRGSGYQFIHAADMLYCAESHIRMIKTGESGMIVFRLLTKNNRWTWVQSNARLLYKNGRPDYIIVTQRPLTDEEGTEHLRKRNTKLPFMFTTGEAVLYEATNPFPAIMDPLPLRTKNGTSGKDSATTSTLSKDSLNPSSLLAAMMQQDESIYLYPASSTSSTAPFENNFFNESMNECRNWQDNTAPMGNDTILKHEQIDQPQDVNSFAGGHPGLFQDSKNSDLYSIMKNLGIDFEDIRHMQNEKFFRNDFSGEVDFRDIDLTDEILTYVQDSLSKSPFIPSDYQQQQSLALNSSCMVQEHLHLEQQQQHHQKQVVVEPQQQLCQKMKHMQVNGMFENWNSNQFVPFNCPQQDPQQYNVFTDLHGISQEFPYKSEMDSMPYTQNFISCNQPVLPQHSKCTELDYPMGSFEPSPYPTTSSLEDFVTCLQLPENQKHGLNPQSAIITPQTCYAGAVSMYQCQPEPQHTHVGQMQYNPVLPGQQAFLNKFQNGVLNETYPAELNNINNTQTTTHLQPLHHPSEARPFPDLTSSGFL
Kind of data set: AhR-responsive pGudLuc reporter, constitutive AhR activity. It is filed as cell-based. Set-up: malignant BP1 and immortalized MCF-10F cells that were transiently transfected with AhR-responsive pGudLuc; endogenous in cells; host or cells: BP1 and MCF-10F cells. As to conditions: BP1 and MCF-10F cells, 24 hrs.

For data set [7], the target named is T3, AhR. Kind of data set: Radiolabeled TCDD displacement from in vitro translated AhR, sucrose gradient. The data set is classed as binding. Also noted: made in house. Conditions: fractions 13-16 of sucrose gradient. The source says: The compounds CMLD-2166 and CB7993113 were mixed with in vitro translated human AhR and radiolabeled TCDD (dioxin), a high affinity AhR ligand. Complexes then were separated on a sucrose gradient and fractions assayed for radioactivity. A decrease in the signal (displacement of radiolabeled TCDD) can be seen in fractions 13-16 indicating binding of the test compound to the AhR and displacement of TCDD.

Data set [8] concerns BP1 cells. Kind of data set: Toxicity of CB7993113 at highest doses tested. It is filed as cell-based, human. As to conditions: 10 uM. As to the method: as §1
Data set [9] deals with T2, AhR. Kind of data set: AhR nuclear translocation, western immunoblot of Hepa-1 nuclear and cytoplasmic extracts. As to conditions: Hepa-1 cells. Set-up: endogenous in cells. It is filed as cell-based. The protocol: To determine whether the inhibitory action of CB7993113 involves binding to the AhR and blocking its translocation to the nucleus, Hepa-1 cells were treated with 1-10 uM CB7993113. One hour later they were challenged with a strong AhR agonist and prototypic PAH, DMBA (1 uM). After a 30 minute incubation period, cells were harvested and extracts from cell nuclei and cytoplasm were obtained. These extracts then were probed for levels of AhR and, as a loading control, β-actin, by western immunoblotting.
Hepa-1 cells were treated with vehicle or 1-10 μM CH223191. One hour later cells were treated with 0.1 μM DMBA (where indicated) and incubated for 30 minutes. Cells were harvested and proteins from the cytoplasm and nuclei were extracted. Extracted proteins were subjected to AhR- or, as loading control, β-actin-specific western immunoblots. Data are representative of 3 independent experiments.

For orientation: IC50 means the concentration needed to halve the response being measured.

T2 sequence (P30561 10-805 limits assumed): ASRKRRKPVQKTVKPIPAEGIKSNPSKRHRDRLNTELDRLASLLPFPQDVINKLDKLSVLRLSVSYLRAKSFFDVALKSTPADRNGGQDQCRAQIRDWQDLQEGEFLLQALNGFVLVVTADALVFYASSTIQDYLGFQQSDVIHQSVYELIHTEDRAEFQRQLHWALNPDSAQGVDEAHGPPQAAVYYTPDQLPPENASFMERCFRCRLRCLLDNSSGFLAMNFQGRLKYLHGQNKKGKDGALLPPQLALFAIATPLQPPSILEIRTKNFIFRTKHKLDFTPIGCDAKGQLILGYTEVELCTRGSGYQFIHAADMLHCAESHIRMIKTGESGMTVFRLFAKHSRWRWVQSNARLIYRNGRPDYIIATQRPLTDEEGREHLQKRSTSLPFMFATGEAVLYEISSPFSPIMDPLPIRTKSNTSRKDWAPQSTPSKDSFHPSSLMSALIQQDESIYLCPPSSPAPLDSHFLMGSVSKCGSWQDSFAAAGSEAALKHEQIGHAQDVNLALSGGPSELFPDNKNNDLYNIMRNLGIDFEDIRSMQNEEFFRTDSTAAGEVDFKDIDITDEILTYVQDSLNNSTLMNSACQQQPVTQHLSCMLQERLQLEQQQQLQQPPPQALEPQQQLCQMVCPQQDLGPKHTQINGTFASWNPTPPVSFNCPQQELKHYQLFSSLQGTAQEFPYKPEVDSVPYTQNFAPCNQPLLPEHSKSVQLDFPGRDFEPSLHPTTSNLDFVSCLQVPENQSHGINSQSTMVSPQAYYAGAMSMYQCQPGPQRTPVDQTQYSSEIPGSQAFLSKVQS
T2 sequence (P11499 whole entry partner): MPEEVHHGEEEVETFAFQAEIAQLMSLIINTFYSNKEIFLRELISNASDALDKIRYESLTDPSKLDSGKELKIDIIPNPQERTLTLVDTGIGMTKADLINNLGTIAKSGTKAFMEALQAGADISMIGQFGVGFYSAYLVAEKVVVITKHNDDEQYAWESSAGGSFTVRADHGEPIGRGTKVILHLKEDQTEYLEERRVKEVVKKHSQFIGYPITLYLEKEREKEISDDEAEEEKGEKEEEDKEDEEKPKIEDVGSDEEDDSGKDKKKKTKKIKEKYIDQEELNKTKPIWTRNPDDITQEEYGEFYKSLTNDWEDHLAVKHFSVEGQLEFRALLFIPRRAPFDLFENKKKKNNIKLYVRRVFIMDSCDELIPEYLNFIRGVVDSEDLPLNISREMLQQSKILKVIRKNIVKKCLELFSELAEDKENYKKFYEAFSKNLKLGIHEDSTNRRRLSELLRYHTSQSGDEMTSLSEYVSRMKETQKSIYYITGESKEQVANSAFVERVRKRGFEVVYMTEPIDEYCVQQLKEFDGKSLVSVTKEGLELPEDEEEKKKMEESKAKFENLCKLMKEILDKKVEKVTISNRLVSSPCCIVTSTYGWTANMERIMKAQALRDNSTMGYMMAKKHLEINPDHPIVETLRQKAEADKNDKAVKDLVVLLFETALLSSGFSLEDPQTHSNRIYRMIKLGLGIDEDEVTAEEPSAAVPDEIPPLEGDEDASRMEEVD
T2 sequence (O08915 whole entry partner): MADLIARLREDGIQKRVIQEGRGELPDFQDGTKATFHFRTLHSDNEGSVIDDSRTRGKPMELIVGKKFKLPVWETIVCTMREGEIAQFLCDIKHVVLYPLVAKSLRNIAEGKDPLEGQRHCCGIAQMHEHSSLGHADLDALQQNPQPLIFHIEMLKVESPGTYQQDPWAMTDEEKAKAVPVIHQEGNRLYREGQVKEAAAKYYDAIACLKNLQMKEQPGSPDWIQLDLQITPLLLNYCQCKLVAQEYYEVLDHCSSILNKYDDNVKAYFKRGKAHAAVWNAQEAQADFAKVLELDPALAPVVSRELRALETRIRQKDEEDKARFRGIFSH

In the case of `c1ccc2c(Cc3c[nH]c4ccccc34)c[nH]c2c1` [DIM, 3,3′-diindolylmethane, reference compound], in the data set with BP1 cells [1], the “BP1 tumor invasion in Matrigel” value is on record as “reduce”.

As to `Cc1ccccc1N=Nc1ccc(NC(=O)c2ccnn2C)c(C)c1` [CH223191, reference compound], the PPARγ-driven reporter activity entry on PPARγ (10 μM) is recorded as “no effect”. Also, the “tumor invasion, Boyden Chambers” value with Hs578T cells [2] is reported as “inhibit tumor invasion”. Besides, the IC50 at AhR [3] came to 330 nM. For the same molecule, the “tumor invasion, Matrigel” value with Hs578T cells [4] is “inhibit tumor invasion”. For the same molecule, the “cell growth (3H-thymidine incorporation)” value with BP1 and MCF-10F cells is listed as “blocked; also recorded: inhibit”. Moreover, in [5], the “DMBA-induced decrease in total number of bone marrow cells” value is “prevented”; the “DMBA-induced decrease in pro B cells, pre-B cells and neutrophils” value is “completely blocked”. Moreover, at AhR [6], the “constitutive AhR activity (pGudLuc activity)” value is reported as “inhibit”.

For `COc1ccc2c(c1)C(=O)[C@H](OC(=O)NS(=O)(=O)c1ccc(C)cc1)[C@@H](c1ccc(OC)c(Br)c1)O2` [CMLD-2166], the PPARγ-driven reporter activity entry at PPARγ (50 μM) was “no effect”. In addition, the “tumor invasion, Boyden Chambers” value in the data set on Hs578T cells [2] is on record as “inhibit tumor invasion”. Besides, the IC50 at AhR [3] stood at 200 nM. For the same molecule, the “tumor invasion, Matrigel” value in the data set with Hs578T cells [4] was “inhibit tumor invasion”. Besides, the “cell growth (3H-thymidine incorporation)” value in the data set on BP1 and MCF-10F cells is recorded as “blocked”; with BP1 and MCF-10F cells (listed as CMLD 2166) it was “inhibit”. Further, at AhR [7], the “binding to AhR (displacement of radiolabeled TCDD)” value is listed as “bind human AhR”. Further, the “constitutive AhR activity (pGudLuc activity)” value at AhR [6] is on record as “inhibit”.

On to `NC(=O)COc1c(-c2ccc(Br)o2)oc2ccccc2c1=O` [CB7993113], for which the PPARγ-driven reporter activity entry on PPARγ (10 μM) is on record as “no effect”. The toxicity result in the data set with BP1 cells [8] is reported as “not toxic”. For the same molecule, the “DMBA-induced AhR translocation to the nucleus” value on AhR [9] (1-10 uM, 1 h before DMBA, 30 min) is recorded as “completely blocked”. In addition, at AhR [9] (no DMBA), the “translocation of the AhR to the nucleus, inhibitor alone (agonist activity)” value was “no effect”. Further, the “binding to AhR (displacement of radiolabeled TCDD)” value at AhR [7] is recorded as “bind human AhR”. Moreover, in data set [5], the “DMBA-induced decrease in total number of bone marrow cells” value is on record as “prevented”; the “DMBA-induced decrease in pro B cells, pre-B cells and neutrophils” value is reported as “completely blocked”. Moreover, the “BP1 tumor invasion in Matrigel” value with BP1 cells [1] was “blocks”.

For the molecule `CCOC(=O)Oc1c(-c2ccc(Cl)cc2)oc2ccccc2c1=O` [CB7950998], the “BP1 tumor invasion in Matrigel” value with BP1 cells [1] is on record as “reduce”.
